Reference: patent publication US12264155B2, “Compounds, pharmaceutical compositions, and methods of preparing compounds and of their use as ATR kinase inhibitors” (Repare Therapeutics Inc., priority 2018, dated 2025)

What follows are compounds tested against ATR/ATRIP (Homo sapiens (Human), UniProt Q13535) (assay: ATR/ATRIP enzymatic assay (AlphaScreen, phosphorylation of p53)). Conditions: not given.
Chain of ATR/ATRIP (Q13535 whole entry): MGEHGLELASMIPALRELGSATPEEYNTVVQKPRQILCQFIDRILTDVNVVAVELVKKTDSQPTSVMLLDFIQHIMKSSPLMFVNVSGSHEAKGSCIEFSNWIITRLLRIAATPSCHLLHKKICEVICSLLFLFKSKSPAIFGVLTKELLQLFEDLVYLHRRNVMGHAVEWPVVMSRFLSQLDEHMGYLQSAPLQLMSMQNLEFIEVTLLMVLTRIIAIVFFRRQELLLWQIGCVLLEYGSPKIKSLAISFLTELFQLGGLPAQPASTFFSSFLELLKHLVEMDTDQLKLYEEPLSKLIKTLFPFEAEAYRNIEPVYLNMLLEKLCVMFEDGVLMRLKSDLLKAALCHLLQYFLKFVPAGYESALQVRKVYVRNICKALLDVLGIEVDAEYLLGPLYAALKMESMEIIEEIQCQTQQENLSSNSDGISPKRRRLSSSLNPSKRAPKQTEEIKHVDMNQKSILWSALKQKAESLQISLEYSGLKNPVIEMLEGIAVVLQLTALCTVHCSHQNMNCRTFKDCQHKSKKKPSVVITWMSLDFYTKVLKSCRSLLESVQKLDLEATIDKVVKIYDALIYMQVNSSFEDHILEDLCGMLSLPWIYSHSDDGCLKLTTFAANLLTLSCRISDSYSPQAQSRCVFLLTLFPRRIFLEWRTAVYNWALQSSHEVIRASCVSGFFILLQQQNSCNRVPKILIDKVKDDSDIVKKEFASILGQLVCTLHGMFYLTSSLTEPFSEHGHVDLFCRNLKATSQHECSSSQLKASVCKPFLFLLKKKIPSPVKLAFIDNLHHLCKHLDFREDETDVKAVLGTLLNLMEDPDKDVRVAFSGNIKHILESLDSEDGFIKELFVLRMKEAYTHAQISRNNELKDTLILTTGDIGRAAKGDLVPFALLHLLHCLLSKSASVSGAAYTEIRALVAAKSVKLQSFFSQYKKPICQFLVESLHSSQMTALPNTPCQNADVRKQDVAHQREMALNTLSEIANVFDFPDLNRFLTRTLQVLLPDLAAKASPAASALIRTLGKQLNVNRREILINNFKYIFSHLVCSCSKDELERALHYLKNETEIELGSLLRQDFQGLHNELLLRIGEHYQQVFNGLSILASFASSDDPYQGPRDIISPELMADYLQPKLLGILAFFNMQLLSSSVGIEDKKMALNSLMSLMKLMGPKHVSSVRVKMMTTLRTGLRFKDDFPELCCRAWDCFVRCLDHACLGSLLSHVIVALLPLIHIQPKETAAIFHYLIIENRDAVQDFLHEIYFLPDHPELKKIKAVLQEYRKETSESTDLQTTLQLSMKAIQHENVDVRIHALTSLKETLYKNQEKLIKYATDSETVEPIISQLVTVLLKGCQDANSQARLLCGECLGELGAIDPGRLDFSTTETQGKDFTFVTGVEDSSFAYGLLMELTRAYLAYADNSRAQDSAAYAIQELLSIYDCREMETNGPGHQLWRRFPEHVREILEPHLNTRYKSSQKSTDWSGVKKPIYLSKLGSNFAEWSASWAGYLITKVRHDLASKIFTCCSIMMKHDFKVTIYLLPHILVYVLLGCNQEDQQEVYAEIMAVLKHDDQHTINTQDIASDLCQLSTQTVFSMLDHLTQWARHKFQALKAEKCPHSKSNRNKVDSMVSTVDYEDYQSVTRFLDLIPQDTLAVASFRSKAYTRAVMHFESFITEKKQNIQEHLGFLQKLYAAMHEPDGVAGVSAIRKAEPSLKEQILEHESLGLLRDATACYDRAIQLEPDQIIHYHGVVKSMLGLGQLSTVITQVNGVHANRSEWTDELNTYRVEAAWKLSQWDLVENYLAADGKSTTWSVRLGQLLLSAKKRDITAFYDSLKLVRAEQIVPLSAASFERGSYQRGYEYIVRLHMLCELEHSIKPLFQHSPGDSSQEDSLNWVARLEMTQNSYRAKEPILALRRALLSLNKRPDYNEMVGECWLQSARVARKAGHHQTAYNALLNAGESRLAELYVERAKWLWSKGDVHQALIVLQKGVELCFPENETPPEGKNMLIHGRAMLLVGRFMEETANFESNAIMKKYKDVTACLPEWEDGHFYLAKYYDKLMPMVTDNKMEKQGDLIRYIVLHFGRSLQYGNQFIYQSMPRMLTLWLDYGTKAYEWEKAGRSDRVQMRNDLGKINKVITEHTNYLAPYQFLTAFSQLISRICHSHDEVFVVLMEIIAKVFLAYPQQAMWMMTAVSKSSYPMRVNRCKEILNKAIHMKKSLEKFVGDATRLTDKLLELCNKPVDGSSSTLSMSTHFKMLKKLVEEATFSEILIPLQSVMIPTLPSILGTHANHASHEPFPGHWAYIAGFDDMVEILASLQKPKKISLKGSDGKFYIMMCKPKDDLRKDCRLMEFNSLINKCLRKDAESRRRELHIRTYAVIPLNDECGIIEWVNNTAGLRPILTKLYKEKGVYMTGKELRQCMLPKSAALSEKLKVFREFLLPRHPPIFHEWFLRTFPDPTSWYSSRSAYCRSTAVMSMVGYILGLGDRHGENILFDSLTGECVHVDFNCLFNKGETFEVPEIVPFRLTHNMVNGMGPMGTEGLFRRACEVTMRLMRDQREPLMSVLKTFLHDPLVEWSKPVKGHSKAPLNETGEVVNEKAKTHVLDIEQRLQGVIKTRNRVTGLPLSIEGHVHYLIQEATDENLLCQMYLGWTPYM
Chain of ATR/ATRIP (Q8WXE1 whole entry partner): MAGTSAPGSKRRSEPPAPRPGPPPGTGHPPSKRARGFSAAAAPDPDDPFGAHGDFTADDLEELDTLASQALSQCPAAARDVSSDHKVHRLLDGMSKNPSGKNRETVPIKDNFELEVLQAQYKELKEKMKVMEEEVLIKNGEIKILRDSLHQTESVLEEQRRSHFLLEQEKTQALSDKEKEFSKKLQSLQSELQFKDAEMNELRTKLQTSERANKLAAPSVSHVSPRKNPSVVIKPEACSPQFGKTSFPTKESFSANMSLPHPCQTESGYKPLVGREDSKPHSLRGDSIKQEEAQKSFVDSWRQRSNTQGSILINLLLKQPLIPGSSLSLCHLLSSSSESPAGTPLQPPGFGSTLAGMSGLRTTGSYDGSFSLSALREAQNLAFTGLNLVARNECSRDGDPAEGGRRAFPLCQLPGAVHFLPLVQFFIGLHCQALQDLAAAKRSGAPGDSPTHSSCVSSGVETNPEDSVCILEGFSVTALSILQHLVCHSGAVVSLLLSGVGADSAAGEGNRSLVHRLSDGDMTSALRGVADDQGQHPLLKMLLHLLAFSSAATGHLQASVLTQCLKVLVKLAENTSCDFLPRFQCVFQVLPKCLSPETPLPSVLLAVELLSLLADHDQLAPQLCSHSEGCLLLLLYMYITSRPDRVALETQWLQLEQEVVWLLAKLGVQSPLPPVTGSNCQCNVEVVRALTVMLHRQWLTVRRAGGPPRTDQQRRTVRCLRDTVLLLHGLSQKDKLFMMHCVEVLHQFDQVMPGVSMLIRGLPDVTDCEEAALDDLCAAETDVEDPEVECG
`C[C@@H]1COCCN1c1cc(C(C)(C)C#N)c2cnn(Cc3ccn[nH]3)c2n1` [Compound 66] showed an IC50 of 448 nM.

Same assay, conditions: read-out: ATR IC50; recombinant ATR/ATRIP 0.63 nM, 25 nM GST-p53, 3 μM ATP, 1 hour room temperature
In the case of `COC(C)(C)c1cc(N2CCOC[C@H]2C)nc2c1ccn2-c1cc[nH]n1` [Compound 30], the IC50 is reported as 284 nM. `C[C@@H]1COCCN1c1cc(C(C)(C)C#N)c2cnn(-c3ncc[nH]3)c2n1` [Compound 90] gave an IC50 of 165 nM. With `C[C@@H]1COCCN1c1cc(C(C)(C#N)C2COC2)c2cnn(-c3cc[nH]n3)c2n1` (stereo partly shown) [Compound 49] the IC50 was 11 nM. With `C[C@@H]1COCCN1c1cc(-c2ccccc2F)c2cnn(-c3ccn[nH]3)c2n1` [Compound 91] the IC50 was < 5 nM. Work on `C[C@@H]1COCCN1c1cc(I)c2cnn(-c3ccn[nH]3)c2n1` [Compound 42] yielded an IC50 of 32 nM. For `COc1cc(N2CCOC[C@H]2C)nc2c1cnn2-c1cc[nH]n1` [Compound 51], the IC50 was 141 nM. In the case of `C[C@@H]1COCCN1c1cc(S(C)(=O)=O)c2cnn(-c3cc[nH]n3)c2n1` [Compound 44], the IC50 is reported as 27 nM. In the case of `C[C@@H]1COCCN1c1cc(-c2ccnn2C)c2ccn(-c3cc[nH]n3)c2n1` [Compound 34], the IC50 is reported as 451 nM. Work on `C[C@@H]1COCCN1c1cc(C2(C#N)CNC2)c2cnn(-c3cc[nH]n3)c2n1` [Compound 82] yielded an IC50 of 17 nM. Work on `C[C@@H]1COCCN1c1cc(-c2ccncn2)c2ccn(-c3cc[nH]n3)c2n1` [Compound 13] yielded an IC50 of 1650 nM. `C[C@@H]1COCCN1c1cc(C2(CN)CCCCC2)c2cnn(-c3cc[nH]n3)c2n1` [Compound 78] was tested, and the IC50 was 24 nM. Work on `Cc1cn(-c2cc[nH]n2)c2nc(N3CCOC[C@H]3C)cc(C(C)(C)C#N)c12` [Compound 7, (R)-2-methyl-2-(3-methyl-6-(3-methylmorpholino)-1-(1H-pyrazol-3-yl)-1H-pyrrolo[2,3-b]pyridin-4-yl)propanenitrile] yielded an IC50 of 403 nM. Work on `C[C@@H]1COCCN1c1cc(N2CCCS2(=O)=O)c2cnn(-c3cc[nH]n3)c2n1` [Compound 54] yielded an IC50 of 23 nM. Compound `C[C@@H]1COCCN1c1cc(C2(C#N)CCCCC2)c2cnn(-c3cc[nH]n3)c2n1` [Compound 5, (R)-1-(6-(3-methylmorpholino)-1-(1H-pyrazol-3-yl)-1H-pyrazolo[3,4-b]pyridin-4-yl)cyclohexane-1-carbonitrile] has an IC50 of 3 nM. Work on `C[C@@H]1COCCN1c1cc(C(C)(C)O)c2cnn(-c3ccccn3)c2n1` [Compound 63] yielded an IC50 of 11 nM. In the case of `Cc1c[nH]nc1-n1ccc2c(C3(S(C)(=O)=O)CC3)cc(N3CCOC[C@H]3C)nc21` [Compound 36], the IC50 is reported as > 1000 nM. `C[C@@H]1COCCN1c1cc(C(C)(C)O)c2cnn(-c3cccc(N)n3)c2n1` [Compound 65] gave an IC50 of 104 nM. Compound `COc1ccc(-c2cc(N3CCOC[C@H]3C)nc3c2ccn3-c2cc[nH]n2)cn1` [Compound 16] has an IC50 of 1520 nM. Compound `C[C@@H]1COCCN1c1cc(C(C)(C)O)c2cnn(-c3cccnn3)c2n1` [Compound 67] has an IC50 of 198 nM. For `C[C@@H]1COCCN1c1cc(CC#N)c2cnn(-c3cc[nH]n3)c2n1` [Compound 32], the IC50 was 54 nM. Compound `C[C@@H]1COCCN1c1cc(C2(O)CCC(C)(C#N)CC2)c2cnn(-c3cc[nH]n3)c2n1` (stereo partly shown) [Compound 59] has an IC50 of 10 nM. Work on `C[C@@H]1COCCN1c1cc(-c2nncs2)c2cnn(-c3cc[nH]n3)c2n1` [Compound 72] yielded an IC50 of 94 nM. In the case of `C[C@@H]1COCCN1c1cc(C2(S(C)(=O)=O)CC2)c2ccn(-c3cn[nH]c3C(F)(F)F)c2n1` [Compound 37], the IC50 is reported as > 1000 nM. In the case of `C[C@@H]1COCCN1c1cc(C2(S(C)(=O)=O)CC2)c2ccn(-c3cn[nH]c3)c2n1` [Compound 38], the IC50 is reported as > 1000 nM. In the case of `C[C@@H]1COCCN1c1cc(-c2cccc(S(C)(=O)=O)c2)c2cnn(-c3ccn[nH]3)c2n1` [Compound 92], the IC50 is reported as 8 nM. `C[C@@H]1COCCN1c1cc(C(=O)N(C)Cc2ccccc2)c2ccn(-c3cc[nH]n3)c2n1` [Compound 19] was tested, and the IC50 was 540 nM. In the case of `C[C@@H]1COCCN1c1cc(C(C)(C)C#N)c2cnn(-c3cc[nH]n3)c2n1` [Compound 24], the IC50 is reported as 6 nM. With `C[C@@H]1COCCN1c1cc(C2(C#N)CCOCC2)c2cnn(-c3cc[nH]n3)c2n1` [Compound 73] the IC50 was 3 nM. `C[C@@H]1COCCN1c1cc(S(=O)(=O)c2ccccc2)c2cnn(-c3cc[nH]n3)c2n1` [Compound 50] was tested, and the IC50 was 116 nM. With `C[C@@H]1COCCN1c1cc(C2(C#N)CCNCC2)c2cnn(-c3cc[nH]n3)c2n1` [Compound 83] the IC50 was 22 nM. For `COc1cc(-c2cc(N3CCOC[C@H]3C)nc3c2ccn3-c2cc[nH]n2)ccn1` [Compound 39], the IC50 was > 10000 nM. With `C[C@@H]1COCCN1c1nc2c(cnn2-c2cc[nH]n2)c(C(C)(C)C#N)c1Cl` [Compound 69] the IC50 was 554 nM. `C[C@@H]1COCCN1c1cc(C(C)(C)C#N)c2ccn(-c3cc[nH]n3)c2n1` [Compound 11] gave an IC50 of 101 nM. Compound `C[C@@H]1COCCN1c1cc(-c2ccccc2F)c2cnn(-c3ccn[nH]3)c2n1` [Compound 48] has an IC50 of 5 nM. With `C[C@@H]1COCCN1c1cc(-c2ccncc2)c2ccn(-c3cc[nH]n3)c2n1` [Compound 15] the IC50 was 1870 nM. `C[C@@H]1COCCN1c1cc(S(=O)(=O)C2CC2)c2cnn(-c3cc[nH]n3)c2n1` [Compound 45] was tested, and the IC50 was 5 nM. Work on `C[C@@H]1COCCN1c1cc(N(C)c2cccnc2)c2ccn(-c3cc[nH]n3)c2n1` [Compound 22] yielded an IC50 of 876 nM. `C[C@@H]1COCCN1c1cc(C(=O)N2CCOCC2)c2ccn(-c3cc[nH]n3)c2n1` [Compound 18] was tested, and the IC50 was 1940 nM. For `C[C@@H]1COCCN1c1cc(C(C)(C)C(N)=O)c2cnn(-c3cc[nH]n3)c2n1` [Compound 4, (R)-2-methyl-2-(6-(3-methylmorpholino)-1-(1H-pyrazol-3-yl)-1H-pyrazolo[3,4-b]pyridin-4-yl)propanamide], the IC50 was 56 nM. In the case of `C[C@@H]1COCCN1c1cc(C2(C(N)=O)CCCCC2)c2cnn(-c3cc[nH]n3)c2n1` [Compound 77], the IC50 is reported as 5 nM. For `C[C@@H]1COCCN1c1cc(C(C)(C)C(N)=O)c2ccn(-c3cc[nH]n3)c2n1` [Compound 12], the IC50 was 379 nM. Work on `Cc1ccnc(-n2ncc3c(C(C)(C)O)cc(N4CCOC[C@H]4C)nc32)c1` [Compound 64] yielded an IC50 of 92 nM. With `C[C@@H]1COCCN1c1cc(Nc2cccnc2)c2ccn(-c3cc[nH]n3)c2n1` [Compound 17] the IC50 was 1210 nM. `C[C@@H]1COCCN1c1cc(C2(C#N)CC[S+]([O-])CC2)c2cnn(-c3cc[nH]n3)c2n1` (stereo partly shown) [Compound 75] showed an IC50 of 29 nM. `C[C@@H]1COCCN1c1cc(C2(C#N)CCNC2)c2cnn(-c3cc[nH]n3)c2n1` (stereo partly shown) [Compound 84] was tested, and the IC50 was 9 nM. `C=Cc1nn(-c2cc[nH]n2)c2nc(N3CCOC[C@H]3C)cc(C(C)(C)C#N)c12` [Compound 71] was tested, and the IC50 was < 5 nM. In the case of `C[C@@H]1COCCN1c1cc(-c2ccccc2[S+](C)[O-])c2ccn(-c3cc[nH]n3)c2n1` (stereo partly shown) [Compound 20], the IC50 is reported as 229 nM. `COc1ccc(-c2cc(N3CCOC[C@H]3C)nc3c2c(C)cn3-c2cc[nH]n2)cn1` [Compound 21] showed an IC50 of 828 nM. With `C[C@@H]1COCCN1c1cc(C2(O)CCC3(CC2)CSC3)c2cnn(-c3cc[nH]n3)c2n1` [Compound 61] the IC50 was 2 nM. In the case of `Cc1ccncc1-c1cc(N2CCOC[C@H]2C)nc2c1ccn2-c1cc[nH]n1` [Compound 9], the IC50 is reported as 37 nM. `Cc1ccc(-c2cc(N3CCOC[C@H]3C)nc3c2ccn3-c2cc[nH]n2)nn1` [Compound 14] gave an IC50 of 1150 nM. With `C[C@@H]1COCCN1c1cc(C2(C#N)CCSCC2)c2cnn(-c3cc[nH]n3)c2n1` [Compound 74] the IC50 was 8 nM. In the case of `C[C@@H]1COCCN1c1cc(C2(O)CCN(C)CC2)c2cnn(-c3cc[nH]n3)c2n1` [Compound 60], the IC50 is reported as 37 nM. For `Cc1cc(-n2ncc3c(C(C)(C)C#N)cc(N4CCOC[C@H]4C)nc32)[nH]n1` [Compound 86], the IC50 was < 5 nM. For `C[C@@H]1COCCN1c1cc(-c2ccc(S(C)(=O)=O)cc2)c2cnn(-c3ccn[nH]3)c2n1` [Compound 89], the IC50 was 31 nM. In the case of `C[C@@H]1COCCN1c1cc(C2(C#N)CCN(C(=O)OC(C)(C)C)C2)c2cnn(-c3cc[nH]n3)c2n1` (stereo partly shown) [Compound 80], the IC50 is reported as 6 nM. In the case of `C[C@@H]1COCCN1c1cc(C2(C#N)CN(C(=O)OC(C)(C)C)C2)c2cnn(-c3cc[nH]n3)c2n1` [Compound 79], the IC50 is reported as 30 nM. `C[C@@H]1COCCN1c1cc(N(C)S(C)(=O)=O)c2cnn(-c3cc[nH]n3)c2n1` [Compound 52] was tested, and the IC50 was 8 nM. For `C[C@@H]1COCCN1c1cc(N2CCCCS2(=O)=O)c2cnn(-c3cc[nH]n3)c2n1` [Compound 53], the IC50 was 9 nM. `C[C@@H]1COCCN1c1cc(-c2cccs2)c2ccn(-c3cc[nH]n3)c2n1` [Compound 41] was tested, and the IC50 was > 10000 nM. For `C[C@@H]1COCCN1c1cc(C(N)=O)c2cnn(-c3cc[nH]n3)c2n1` [Compound 23], the IC50 was 264 nM. Work on `C[C@@H]1COCCN1c1cc(C(C)(C)O)c2ccn(-c3cc[nH]n3)c2n1` [Compound 10] yielded an IC50 of 1600 nM. Work on `C[C@@H]1COCCN1c1cc(C2(C#N)CC2)c2ccn(-c3cc[nH]n3)c2n1` [Compound 29] yielded an IC50 of 580 nM. `C[C@@H]1COCCN1c1cc(C2(C#N)CCC2)c2cnn(-c3cc[nH]n3)c2n1` [Compound 27] was tested, and the IC50 was 135 nM. `C[C@@H]1COCCN1c1cc(-c2ccccc2S(C)(=O)=O)c2ccn(-c3cc[nH]n3)c2n1` [Compound 6, (R)-3-methyl-4-(4-(2-(methylsulfonyl)phenyl)-1-(1H-pyrazol-3-yl)-1H-pyrrolo[2,3-b]pyridin-6-yl)morpholine] was tested, and the IC50 was 425 nM. In the case of `C[C@@H]1COCCN1c1cc(C2(C#N)CCCC2)c2cnn(-c3cc[nH]n3)c2n1` [Compound 28], the IC50 is reported as 4 nM. `C[C@@H]1COCCN1c1cc(C(C)(C)O)c2cnn(-c3cc[nH]n3)c2n1` [Compound 2, (R)-2-(6-(3-methylmorpholino)-1-(1H-pyrazol-3-yl)-1H-pyrazolo[3,4-b]pyridin-4-yl)propan-2-ol] showed an IC50 of 40 nM. `CC(C)c1cc(N2CCOC[C@H]2C)nc2c1ccn2-c1cc[nH]n1` [Compound 31] showed an IC50 of 1420 nM. For `C[C@@H]1COCCN1c1cc(C(C)(C)C#N)c2cnn(-c3n[nH]cc3F)c2n1` [Compound 68], the IC50 was 1340 nM. With `C[C@@H]1COCCN1c1cc(C2(C#N)CCN(C(=O)OC(C)(C)C)CC2)c2cnn(-c3cc[nH]n3)c2n1` [Compound 81] the IC50 was 8 nM. `C[C@@H]1COCCN1c1cc(C2(C#N)CCS(=O)(=O)CC2)c2cnn(-c3cc[nH]n3)c2n1` [Compound 76] showed an IC50 of 36 nM. `C[C@@H]1COCCN1c1cc(N2CCNC(=O)C2)c2cnn(-c3ccn[nH]3)c2n1` [Compound 87] gave an IC50 of 10 nM.
